Assay results: PMC6934184, “Selective DNA-PKcs inhibition extends the therapeutic index of localized radiotherapy and chemotherapy” (The Journal of Clinical Investigation, 2019)

Target: T1, RET V804M (Homo sapiens, UniProt P07949, V804M)
T1 construct: purchased Thermo Fisher Scientific (Life Technologies) SelectScreen
Test: SelectScreen LanthaScreen
Type: binding
Conditions: read-out: % displacement
Procedure, shortened: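 NU5455 was profiled across the SelectScreen Broad panel of kinase activity and binding assays. Z'LYTE reactions such as CSF1R ran at apparent Km ATP, while the Adapta CAMK1 assay used ATP listed as 10. Values are given as percent.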

T1 sequence (P07949 29-1114 V804M): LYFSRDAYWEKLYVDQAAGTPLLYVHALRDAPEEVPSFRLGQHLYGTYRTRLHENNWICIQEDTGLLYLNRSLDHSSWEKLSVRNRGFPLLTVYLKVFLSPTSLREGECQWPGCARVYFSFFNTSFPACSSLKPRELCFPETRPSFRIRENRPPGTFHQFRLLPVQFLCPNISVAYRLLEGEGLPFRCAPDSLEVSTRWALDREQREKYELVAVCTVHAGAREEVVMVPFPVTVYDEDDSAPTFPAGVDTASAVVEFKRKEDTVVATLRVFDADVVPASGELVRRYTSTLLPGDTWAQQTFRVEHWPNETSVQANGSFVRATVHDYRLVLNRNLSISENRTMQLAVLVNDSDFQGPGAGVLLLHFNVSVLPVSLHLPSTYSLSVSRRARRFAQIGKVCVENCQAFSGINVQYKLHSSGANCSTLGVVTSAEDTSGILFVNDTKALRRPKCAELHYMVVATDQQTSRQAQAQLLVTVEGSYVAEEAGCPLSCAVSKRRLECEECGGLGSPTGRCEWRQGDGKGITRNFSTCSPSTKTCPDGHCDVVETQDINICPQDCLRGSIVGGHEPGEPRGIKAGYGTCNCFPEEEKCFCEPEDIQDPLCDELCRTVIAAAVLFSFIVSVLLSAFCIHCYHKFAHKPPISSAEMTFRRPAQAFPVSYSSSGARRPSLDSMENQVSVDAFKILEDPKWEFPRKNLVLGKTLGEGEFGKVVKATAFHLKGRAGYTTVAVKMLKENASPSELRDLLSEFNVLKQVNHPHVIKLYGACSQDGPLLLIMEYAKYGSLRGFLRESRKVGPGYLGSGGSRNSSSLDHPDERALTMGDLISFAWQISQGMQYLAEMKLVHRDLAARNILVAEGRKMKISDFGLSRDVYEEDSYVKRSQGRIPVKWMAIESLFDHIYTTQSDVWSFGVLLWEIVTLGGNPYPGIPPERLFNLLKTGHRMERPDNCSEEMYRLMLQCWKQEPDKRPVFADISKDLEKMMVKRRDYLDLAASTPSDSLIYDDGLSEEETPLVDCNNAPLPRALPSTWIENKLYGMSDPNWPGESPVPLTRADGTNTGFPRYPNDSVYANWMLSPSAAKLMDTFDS

`CN(C(=O)CN1CCOCC1)c1ccc2sc3c(-c4cccc5c(=O)cc(N6CC7CCC(C6)O7)oc45)cccc3c2c1` [NU5455] gave an inhibition at 1 µM of 11.3%.
